From US7700728B2, “Use of chimeric receptors in a screening assay for identifying agonists and antagonists of cell receptors” (Schering Corporation, priority 2005, dated 2010) come the findings set out here.

Experiment [1] concerns chimeric TLR3/CD32a receptor lacking two N-glycosylation sites (N196 and N247). Briefly: NFκB luciferase reporter in HEK 293 cells co-transfected with chimeric TLR3/CD32a lacking two N-glycosylation sites. The experiment is classed as cell-based, human. An excerpt: In order to determine the role of glycosylation in ligand recognition by TLR3, a chimeric TLR3/CD32a receptor lacking two N-glycosylation sites (N196 and N247 as numbered at Genbank Acc. No. NP_003256) was generated by site-directed mutagenesis and co-transfected into HEK 293 cells with a reporter plasmid containing concensus NFκB sites which, when activated, directs the expression of firefly luciferase.

Experiment [2] has as its target T1, chimeric TLR3/CD32a receptor (Homo sapiens, UniProt O15455).
T1 construct: expressed in transfected cells; host or cells: U937 cells, transiently or stably transfected with pTLR3/CD32a (pMET7 vector)
T1 sequence (O15455 with tags, fused parts or gaps): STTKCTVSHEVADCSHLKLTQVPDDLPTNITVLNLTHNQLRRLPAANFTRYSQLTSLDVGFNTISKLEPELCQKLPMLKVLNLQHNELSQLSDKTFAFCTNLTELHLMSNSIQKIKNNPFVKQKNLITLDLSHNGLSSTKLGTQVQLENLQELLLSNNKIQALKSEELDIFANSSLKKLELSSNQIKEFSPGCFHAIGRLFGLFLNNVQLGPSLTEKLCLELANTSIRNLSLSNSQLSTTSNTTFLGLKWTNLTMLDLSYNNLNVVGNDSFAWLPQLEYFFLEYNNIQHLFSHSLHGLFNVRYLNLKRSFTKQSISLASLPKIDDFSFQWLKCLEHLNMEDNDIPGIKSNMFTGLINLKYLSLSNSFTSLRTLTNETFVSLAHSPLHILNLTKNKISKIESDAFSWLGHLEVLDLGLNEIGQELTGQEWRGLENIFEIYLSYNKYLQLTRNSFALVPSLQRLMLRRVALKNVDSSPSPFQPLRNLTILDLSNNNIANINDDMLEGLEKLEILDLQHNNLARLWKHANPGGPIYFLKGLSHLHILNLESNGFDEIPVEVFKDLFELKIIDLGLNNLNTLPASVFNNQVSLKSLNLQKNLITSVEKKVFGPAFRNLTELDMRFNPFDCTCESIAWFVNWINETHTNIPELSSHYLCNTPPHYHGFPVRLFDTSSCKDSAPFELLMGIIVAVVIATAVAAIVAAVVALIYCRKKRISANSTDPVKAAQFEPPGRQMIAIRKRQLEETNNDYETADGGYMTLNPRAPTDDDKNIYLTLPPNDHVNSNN
Briefly: Effect of extracellular pH on calcium mobilization in U937 cells expressing chimeric TLR3/CD32a. To be noted: pH range 5.5-7.5. The format is cell-based. An excerpt:
Wild type TLR3 has previously been described as an intracellular receptor, at least in dendritic cells (DC), and interaction with its ligand occurs in early endosomes. […] U937 cells expressing the chimeric human TLR3/CD32a receptor at the cell surface were used to investigate the effect of the extracellular pH on poly-IC-mediated calcium mobilization.
For orientation: A change in cytosolic calcium serves as a functional read-out for many receptors and channels.

The next experiment concerns PBMC. Briefly: Cytokine induction in PBMC. The format is cell-based.
Experiment [3] concerns chimeric TLR2/CD32a receptor. Briefly: Calcium mobilization in untransfected U937 cells or cells transfected with pTLR2/CD32a (specificity control). The experiment is classed as cell-based, human. The source says:
(§1) The hematopoietic cell line U937 was used for further biological investigation because of the ability of this cell line to display calcium mobilization upon cross-linking of endogenous CD32a using anti-CD32a antibodies followed by secondary antibody (as detected by fluorimetry following loading of the cells with Indo-1 or Fluo-4). Thus, U937 cells express all of the cellular components required for calcium mobilization mediated through CD32a activation.
(§2) Transient transfection of the pTLR3/CD32a and pTLR2/CD32a expression vectors into U937 allowed high level cell surface expression of the chimeric molecule as detected with anti-TLR3 or anti-TLR2 antibodies, while no expression was observed on untransfected cells or cells transfected with the other chimeric vector.

For experiment [4], the target named is T1, chimeric TLR3/CD32a receptor. Briefly: Calcium mobilization in U937 cells transiently transfected with pTLR3/CD32a. The format is cell-based.
Excerpt: as §1, §2
Poly-IC, a synthetic double-stranded RNA ligand for TLR3, was then tested for its ability to stimulate the chimeric TLR3/CD32a receptor. Poly(I) (15, 30 and 40 mers) and poly(C) (15, 30 and 40 mers) (Ambion, Huntingdon, Cambridgeshire, U.K. and Invitrogen, Cergy Pontoise, France respectively) were annealed in equal proportions according to their size for 15 minutes at 95° C. Independently, fragmentation of high molecular weight poly-IC (>5000 bp) was performed by metal-induced hydrolysis as recommended by Affymetrix (High Wycombe, UK). Briefly, 200 μg poly-IC was incubated with 40 μl of 5×RNA fragmentation buffer (200 mM Tris-acetate, pH 8.1, 500 mM KOAc, 150 mM MgOAc) in a final volume of 200 μl, for 35 min at […]. Fragmented poly-IC (100-200 bp) was then allowed to reach room temperature before purification. The relative sizes of dsRNA fragments were examined by electrophoresis in 2% agarose gel.

The target is the same in experiment [5]. Briefly: Calcium mobilization in U937 clones stably transfected with pTLR3/CD32a. The experiment is classed as cell-based. An excerpt:
U937 cells were stably transfected with pTLR3/CD32a using co-transfection with an antibiotic-encoding plasmid and antibiotic selection followed by limiting dilution cloning. Clones were selected based on their cell surface expression level of TLR3. […] These clones expand very easily (up to 10^9 cells) and can be maintained for several months in culture without losing the expression of the chimeric receptor. […] Such stable clones provide a useful method for high through-put screening of candidate agents for the identification of TLR agonists and antagonists.

chimeric TLR2/CD32a receptor, sequence (as listed by the source, change not shown): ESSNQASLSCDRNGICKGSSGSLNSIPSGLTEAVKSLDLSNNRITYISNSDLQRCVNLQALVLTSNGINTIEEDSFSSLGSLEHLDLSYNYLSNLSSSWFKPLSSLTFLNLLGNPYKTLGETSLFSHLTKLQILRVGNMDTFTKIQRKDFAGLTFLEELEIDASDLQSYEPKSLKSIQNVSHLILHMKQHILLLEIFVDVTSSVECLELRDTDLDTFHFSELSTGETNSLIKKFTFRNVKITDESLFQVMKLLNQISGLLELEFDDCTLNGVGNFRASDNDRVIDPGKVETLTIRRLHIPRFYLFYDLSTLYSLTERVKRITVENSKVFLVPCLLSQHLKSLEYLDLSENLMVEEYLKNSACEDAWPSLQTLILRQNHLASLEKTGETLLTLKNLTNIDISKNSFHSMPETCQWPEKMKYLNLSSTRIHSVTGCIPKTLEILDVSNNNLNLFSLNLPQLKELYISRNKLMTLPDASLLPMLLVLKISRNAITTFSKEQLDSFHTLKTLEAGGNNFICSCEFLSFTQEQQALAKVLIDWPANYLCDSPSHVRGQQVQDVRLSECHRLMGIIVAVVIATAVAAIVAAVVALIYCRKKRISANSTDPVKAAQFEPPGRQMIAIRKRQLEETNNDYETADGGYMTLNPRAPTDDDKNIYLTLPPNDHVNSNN

In the case of poly-IC, in experiment [1], the “activity on mutant TLR3 (NFκB luciferase reporter)” value is “completely inactive”. Also, the “pH required for optimal response (calcium mobilization)” value in experiment [2] is reported as 6.5. In addition, in experiment [2], the “pH that prevented biological response (calcium mobilization)” value is ≥ 7.2. Moreover, the “dose required to detect cytokine induction” value with PBMC was 2.5 µg/mL. Further, the calcium mobilization result is recorded as “no calcium mobilization” in experiment [3]; “immediate calcium mobilization of similar intensity to that induced by anti-TLR antibodies” in experiment [4] (U937 transiently transfected with pTLR3/CD32a, fluorimetry with Indo-1 or Fluo-4); “robust calcium mobilization” in experiment [5] (stable U937 clones with cell surface expression of the chimeric receptor). Moreover, in experiment [4] (dose response, transiently transfected U937), the “dose required to detect biological response (calcium mobilization)” value is 0.025 μg/ml. The “response to a second stimulation after sequential stimulation” value in experiment [4] (optimal concentration, second stimulation with poly-IC or anti-TLR3-mediated cross-linking) was “desensitization”. Also, the “sensitivity in dose response (calcium mobilization)” value in experiment [5] (stable U937 clones) is 10 to 30 ng/mL.
